Data published in a melting point compilation (Tetko et al.; mined from patent text by program, amines drawn as free bases though some values may be those of a salt).

| Structure (SMILES) | melting point [°C] |
| --- | --- |
| CN1Cc2c(C#N)ncn2-c2ccc(Cl)cc2C1=O | 272 to 275 |
| O=S(=O)(Oc1ccc2c(OS(=O)(=O)c3ccc(O)cc3)c3cc(OS(=O)(=O)c4ccc(O)cc4)ccc3cc2c1)c1ccc(O)cc1 | 192 to 194 |
| O=C(O)c1cccc2c(Br)c(O)ccc12 | > 225 |
| CN(C)C(N)=C(C#N)C#N | 228 to 229 |
| O=C(NCc1ccccc1)C1Cc2ccccc2N1S(=O)(=O)c1ccc(-c2ccc(F)cc2)cc1 (centres undefined) | 65 |
| OCC1C=CC(n2cnc3cc(Cl)c(Cl)cc32)C1 (centres undefined) | 166 to 169 |
| CC(C)n1c(=O)c2c(-c3cc(C4CC4)on3)ncn2c2ccccc21 | 247 to 249 |
| O=C1CC(c2cccc(Cl)c2)c2cc(C(=O)c3ccc(Cl)cc3)ccc2N1 (centres undefined) | 195 |
| CCCCc1nn(-c2ccccc2C(F)(F)F)c(=O)n1Cc1ccc(-c2ccccc2S(=O)(=O)NC(=O)[C@H]2CC2(C)C)cc1 | 93 to 95 |
| CCCCCCCCCCCCSC(C)(C)C=NNC(=O)CCc1cc(C(C)(C)C)c(O)c(C(C)(C)C)c1 | 53 to 57 |
| CC(=O)[C@@H]1CC(=S)N(C(C)=O)C1 | 49 to 51 |
| COC(=O)c1cc2cc(OC)c(OC)cc2c(-c2ccnc(-n3c(=O)ccc4ccccc43)c2)c1C(=O)OC | > 230 |
| Cc1ccc(Cn2nc(CNC(=O)NC(C)(C)C)cc2-c2ccc(Cl)c(Cl)c2)cc1Cl | 181 |
| O=C(OCc1ccccc1)N1C[C@@H]2CN(c3ccc(N4C[C@H](CO)OC4=O)cc3)C[C@@H]2C1 | 163 to 164 |
| O=C1NCCc2c1c1cccc3c1n2CCO3 | 298 to 300 |
| COc1ccc2cc(N3CCN(C4CCC(c5c[nH]c6ccc(F)cc56)CC4)CC3)ccc2c1 (centres undefined) | 200 to 203 |
| CC1CCCCC1C(=O)Nc1ccc(-c2cnc(-c3ccc(NC(=O)c4ccccn4)cc3)[nH]2)cc1 (centres undefined) | 227 to 229 |
| COc1ccc(N2CCN(C3CCNCC3)C2=O)cc1 | 140 |
| Oc1ccccc1-c1ccc[nH]1 | 100 to 101 |
| Cc1c(/C=C/C(=O)c2ccc3ccccc3c2)ncn1C(c1ccccc1)(c1ccccc1)c1ccccc1 | 194 to 197 |
| O=C(N[C@H](Cc1ccc(CC(F)(F)C(F)(F)F)cc1)[C@@H](O)c1cccc(Cl)c1)c1cccc2c1C=CCCC2 (racemic) | 176 to 177 |
| Oc1cccc(CCNCc2ccccc2)c1 | 86 to 88 |
| Cc1ccc(OC(=O)Cl)cc1 | 60 to 61.5 |
| O=C(O)C(=NOCc1ccc(F)cc1)c1csc(NC(=O)C(F)(F)F)n1 | 180 to 182 |

| Structure (SMILES) | melting point [°C] |
| --- | --- |
| O=C1N=C(N2CCOCC2)SC1=Cc1cc(-c2ccccc2)cc(-c2ccc(O)c(C34CC5CC(CC(C5)C3)C4)c2)c1 | 315 to 320 |
| Oc1ccc(C=C2c3cc(O)c(O)cc3-c3ccc(O)c(O)c32)cc1 | 228 to 230 |
| COc1cc(C#C[Si](C)(C)C)c(OC)cc1C#C[Si](C)(C)C | 164 to 165 |
| O=C(CNC(=O)[C@@H]1CCCN1C(=O)O)NCc1ccccc1 | 112 to 115 |
| Cc1cc(Oc2c(Cl)cc(C(F)(F)F)cc2Cl)nn1C(=O)NOCc1ccccc1 | 98 to 100 |
| O=C(O)c1ccc(Oc2ccccc2Oc2ccc(C(=O)O)cc2)cc1 | 255 to 257 |
| CCCCn1c(=O)c2c(ncn2S(=O)(=O)CCCC)n(CCCC)c1=O | 55 to 57 |
| O=C1CCC2=C1C(c1ccc(F)c(I)c1)C1=C(CCS1)N2 (centres undefined) | > 250 |
| Cc1ccc(-c2ccc3c(c2)C=C(CN2CCC(NC(=O)C(F)(F)F)CC2)CCO3)cc1 | 94 to 96 |
| COC(=O)c1sc2c(c1N)c1ccccc1c(=O)n2-c1ccccc1C | 236 to 237 |
| Cc1noc(NC(=O)N2CCC(c3nc(-c4ccc(F)cc4)cs3)CC2)c1C | 170 to 171 |
| CN1CCN(c2ncc3c(=O)c(C(=O)O)cn(Cc4ccccc4)c3n2)CC1 | 251 to 255 |
| N#CC1=C(C#N)Sc2nc3cc(C#N)ccc3nc2S1 | 218 to 220 |
| COc1nc(C)nc(NC(=O)NS(=O)(=O)c2sccc2C2OCCO2)n1 | 164 to 166 |
| CCC(CCCNC(=O)Nc1cccnc1)NC(=O)Nc1cccnc1 (centres undefined) | 218 to 219 |
| CC(C)CS(=O)(=O)N1C[C@@H](C)C[C@H](Nc2ncccc2-c2cnc3[nH]ccc3n2)C1 | 215 to 218 |
| O=c1cc(N2CCOCC2)oc2ccc(Br)cc12 | 147 to 149 |
| c1cn(CCC23CC4CC(CC(C4)C2)C3)cn1 | 64 to 65 |
| Cc1cccc(NC(=O)C2=C(O)c3ccc4ccccc4c3S(=O)(=O)N2)c1 | 245 |
| Cc1ccc(-c2cn(C)c(-c3nc(-c4ccc(C)s4)cn3C)n2)s1 | 220 to 228 |
| O=C1c2c(-c3ccccc3F)noc2CCC1CCCN1CCN(c2ncccn2)CC1 (centres undefined) | 115 to 117 |
| Cc1oc(-c2ccccc2)nc1COc1ccc(OCc2ccccc2)cc1 | 126 to 127 |
| CC12CCC3c4ccc(C(=O)O)cc4CCC3C1CCC2C(=O)c1ccc(Oc2ccccc2)cc1 (centres undefined) | 224 to 225 |
| CC(=O)CC(=O)NC1CC(C)(C)NC(C)(C)C1 | 115 |

Continued, values first:

| melting point [°C] | Structure (SMILES) |
| --- | --- |
| 81.5 to 82.5 | CCOC(=O)c1ccc(CCCC2NC(=O)CS2)c(Cl)c1 (centres undefined) |
| 116 to 118 | O=C(Nc1ccc(OCCN2CCOCC2)c2ccccc12)c1cc(F)cc(OC2CCCCC2)c1 |
| 60 to 70 | CC(C)(C)OC(=O)c1ccc(OCCNC(=O)C2Cc3ccccc3N2S(=O)(=O)c2ccc(-c3ccc(F)cc3OC(F)F)cc2)cc1 (centres undefined) |
| 158 to 159 | CON=C1Cc2ccccc2N(C(N)=O)c2ccccc21 |
| 147 to 149 | CCN(CC)Cc1ccnc(F)c1CNC(=O)c1cnc2cc(I)ccc2n1 |
| 51 to 52 | CCCOc1ccc([N+](=O)[O-])cc1C=O |
| 300 to 305 | COC(=O)c1cc(=O)c2oc3ccc(Cl)cc3c(=O)c2[nH]1 |
| 104 | Cc1coc(-c2ccccc2)c(-c2ccc(Cl)c(Cl)c2)c1=O |
| 163 to 164 | CC(C(=O)O)c1ccc2cc(OCc3csc(-c4ccccc4)n3)ccc2c1 (centres undefined) |
| 134 | COc1ccc2c(c1)CN(Cc1ccccc1)CC(=O)N2 |
| 56 to 57 | COC(=O)CCc1conc1-c1ccc(Cl)cc1 |
| 57 | COCC(Oc1ccc(Nc2ccc(C(F)(F)F)cc2[N+](=O)[O-])cc1)C(=O)OC (centres undefined) |
| 81 to 84 | Cc1cc(Oc2ccc(F)cc2[N+](=O)[O-])n[nH]1 |
| 197 to 200 | O=C(NCSc1ncnc2nc[nH]c12)c1ccccc1 |
| 94.5 to 95.5 | CSCCN(c1ccc(Cl)cc1[N+](=O)[O-])S(=O)(=O)c1ccc(C)cc1 |
| 151 to 153 | COC(=O)C1=C(C)N(C)C(C)=C(C(=O)OC)C1c1ccccc1 |
| 141 to 143 | CCC(CC)c1ccc(CO)c2nc(Oc3c(C)cc(Cl)cc3Cl)n(C)c12 |
| 114 | CC(C)(C)c1ccccc1N1CCC(N)=N1 |
| 199 to 201 | Nc1cc2c(cc1[N+](=O)[O-])OCO2 |
| 99.5 to 101 | C#CCOC(=O)CCC(C)(c1ccc(O)cc1)c1ccc(O)cc1 |
| 112 to 113 | CCCOc1c(OCc2ccccc2)cc([C@H]2CC[C@H](c3cc(OC)c(OC)c(OC)c3)O2)cc1S(=O)(=O)CCO (relative stereo) |
| 160 to 161 | CC(=O)Nc1ccn(C2OC(COC(C)=O)C(OC(C)=O)C2O[N+](=O)[O-])c(=O)n1 (centres undefined) |
| 90 to 92 | COc1cc(C(=O)N(C(C)C)C(C)C)ccc1OCCCCCOc1ccc(C#N)cc1 |
| 139 to 140 | CCCCCS(=O)(=O)NC(=O)/C=C/c1cc(OC(C)C)nn1Cc1ccc(C(F)(F)F)cc1Cl |
| 149 to 150 | N#Cc1ccc(OCc2ccc(C=Cc3ccncc3)cc2)cc1 |
| 75 to 76 | CS(=O)(=O)OCCCc1cccc(OCc2coc(/C=C/c3ccccc3)n2)c1 |

| melting point [°C] | Structure (SMILES) |
| --- | --- |
| 115 to 116 | CN1C(=O)SC(Cc2cn(-c3ccccc3)nc2OCc2ccccc2)C1=O (centres undefined) |
| 139 to 142 | Cc1ccc(C(=O)O)c(C2=NC(=O)C(C)(C(C)C)N2)n1 (centres undefined) |
| 71 to 73 | CCOC(=S)c1c(CC)nc2ccccn12 |
| 154 to 155 | CCC(Cn1nc(-c2ccccc2)c(-c2ccccc2)c(C#N)c1=O)[N+](=O)[O-] (centres undefined) |
| 43 to 44 | C=CCc1cc(C=C(C(=O)OCC)C(=O)OCC)cc(OC)c1OC |
| 81 to 83 | O=S1(=O)c2sccc2C=C(CO)N1CCO |
| 180 | COC(=O)c1ccc(/C=C/C(=O)O)s1 |
| 172 to 174 | CCCCCCC(=O)Nc1cccc2c1C(=O)N(C1(C)CCC(=O)NC1=O)C2=O (centres undefined) |
| 124 to 126 | CCCCCCCCCCCCCCOc1ccc(C(=O)Nc2ccccc2)cc1 |
| 167 | O=C(NC1Cc2ccc([N+](=O)[O-])cc2C1)c1ccc(F)cc1 (centres undefined) |
| 66 to 68 | Cc1cc(OCc2ccccc2)c(C)c([N+](=O)[O-])c1 |
| 147 to 148 | COC(=O)c1cc(-c2cccc(C(F)(F)F)c2)c(=O)n2ccccc12 |
| < 50 | CCOC(=O)C(=Cc1cccc(OC)c1OC)N=[N+]=[N-] |
| 125 to 130 | CC(=O)N1Cc2cccn2N(C)c2ccncc21 |
| 66 to 67 | OCCCc1cnoc1-c1ccc(Cl)c(Cl)c1 |
| 151 to 152 | O=C1CCc2ccc(OC/C=C/CN3CCN(c4cccc(Cl)c4Cl)CC3)cc2N1 |
| 92 | COc1ccc(S(=O)(=O)C(CC=C(C)C)(Cc2ccc(OCCN3CCOCC3)cc2)C(=O)NO)cc1 (centres undefined) |
| 101 | COC(=O)c1ccc(C(=O)c2c(O)cccc2F)cc1 |
| 114 to 116 | COC(=O)c1c(Cl)cc(Cl)cc1NC(=O)CSc1ccc(N)cc1 |
| 115 to 117 | CC(=O)Oc1ccc(CC2SC(=O)NC2=O)cc1 (centres undefined) |
| 175 | COc1ccc(C2NC(=S)NC(C)=C2C(C)=O)cc1 (racemic) |
| 115 to 117 | COc1cccc2c1OC(COS(=O)(=O)c1ccc(C)cc1)CC2 (centres undefined) |
| 155 to 156 | Cc1oc(-c2ccccc2)nc1COc1ccccc1CO |
| 156 | CCC(=O)Oc1cc(OC)cc(OC)c1C(=O)C=Cc1ccc(C)cc1 |
| 61 | NS(=O)(=O)c1ccc(-c2c(-c3ccccc3)noc2CC(=O)O)cc1 |
